Test results taken from article PMC11277489, “Novel Piperazine Derivatives of Vindoline as Anticancer Agents” (International Journal of Molecular Sciences, 2024).
Where two headings read alike, the source gives them in different places.

Key:
HT29 = experiment: NCI60 one-dose screen (10 μM), Colon Cancer; assay type: cell-based; conditions: Homo sapiens
HCT-15 = experiment: NCI60 one-dose screen (10 μM), Colon Cancer; assay type: cell-based; conditions: Homo sapiens
NCI-H522 = experiment: NCI60 one-dose screen (10 μM), Non-small Cell Lung Cancer; assay type: cell-based; conditions: Homo sapiens
SF-295 = experiment: NCI60 one-dose screen (10 μM), CNS Cancer; assay type: cell-based; conditions: Homo sapiens
NCI-H23 = experiment: NCI60 one-dose screen (10 μM), Non-small Cell Lung Cancer; assay type: cell-based; conditions: Homo sapiens
786–0 = experiment: NCI60 one-dose screen (10 μM), Renal Cancer; assay type: cell-based; conditions: Homo sapiens
SNB-75 = experiment: NCI60 one-dose screen (10 μM), CNS Cancer; assay type: cell-based, human; conditions: Homo sapiens
COLO 205 = experiment: NCI60 one-dose screen (10 μM), Colon Cancer; assay type: cell-based, human; conditions: Homo sapiens
CAKI-1 = experiment: NCI60 one-dose screen (10 μM), Renal Cancer; assay type: cell-based; conditions: Homo sapiens
MALME-3M = experiment: NCI60 one-dose screen (10 μM), Melanoma; assay type: cell-based; conditions: Homo sapiens, read-out: Growth percent rate
NCI-H460 = experiment: NCI60 one-dose screen (10 μM), Non-small Cell Lung Cancer; assay type: cell-based; conditions: Homo sapiens
SNB-19 = experiment: NCI60 one-dose screen (10 μM), CNS Cancer; assay type: cell-based; conditions: Homo sapiens
HL-60(TB) = experiment: NCI60 one-dose screen (10 μM), Leukemia; assay type: cell-based; conditions: Homo sapiens
K-562 = experiment: NCI60 one-dose screen (10 μM), Leukemia; assay type: cell-based; conditions: Homo sapiens
OVCAR-8 = experiment: NCI60 one-dose screen (10 μM), Ovarian Cancer; assay type: cell-based; conditions: Homo sapiens
SK-MEL-28 = experiment: NCI60 one-dose screen (10 μM), Melanoma; assay type: cell-based; conditions: Homo sapiens
SK-MEL-5 = experiment: NCI60 one-dose screen (10 μM), Melanoma; assay type: cell-based, human; conditions: Homo sapiens
CCRF-CEM = experiment: NCI60 one-dose screen (10 μM), Leukemia; assay type: cell-based; conditions: Homo sapiens, read-out: Growth percent rate
SF-268 = experiment: NCI60 one-dose screen (10 μM), CNS Cancer; assay type: cell-based; conditions: Homo sapiens
[1] = system: 60 human tumor cell lines (NCI60); experiment: NCI60 one-dose screen (10 μM), whole panel; assay type: cell-based; conditions: read-out: Growth percent rate, Mean
OVCAR-3 = experiment: NCI60 one-dose screen (10 μM), Ovarian Cancer; assay type: cell-based; conditions: Homo sapiens
A549/ATCC = experiment: NCI60 one-dose screen (10 μM), Non-small Cell Lung Cancer; assay type: cell-based; conditions: Homo sapiens
MDA-MB-435 = experiment: NCI60 one-dose screen (10 μM), Melanoma; assay type: cell-based; conditions: Homo sapiens
SF-539 = experiment: NCI60 one-dose screen (10 μM), CNS Cancer; assay type: cell-based, human; conditions: Homo sapiens
UACC-257 = experiment: NCI60 one-dose screen (10 μM), Melanoma; assay type: cell-based; conditions: Homo sapiens
DU-145 = experiment: NCI60 one-dose screen (10 μM), Prostate Cancer; assay type: cell-based; conditions: Homo sapiens
SK-MEL-2 = experiment: NCI60 one-dose screen (10 μM), Melanoma; assay type: cell-based; conditions: Homo sapiens
HCT-116 = experiment: NCI60 one-dose screen (10 μM), Colon Cancer; assay type: cell-based; conditions: Homo sapiens
MOLT-4 = experiment: NCI60 one-dose screen (10 μM), Leukemia; assay type: cell-based, human; conditions: Homo sapiens
SN12C = experiment: NCI60 one-dose screen (10 μM), Renal Cancer; assay type: cell-based; conditions: Homo sapiens, read-out: Growth percent rate
LOX IMVI = experiment: NCI60 one-dose screen (10 μM), Melanoma; assay type: cell-based, human; conditions: Homo sapiens, LOX IMVI, read-out: Growth percent rate
HCC-2998 = experiment: NCI60 one-dose screen (10 μM), Colon Cancer; assay type: cell-based; conditions: Homo sapiens
MCF7 = experiment: NCI60 one-dose screen (10 μM), Breast Cancer; assay type: cell-based; conditions: Homo sapiens
EKVX = experiment: NCI60 one-dose screen (10 μM), Non-small Cell Lung Cancer; assay type: cell-based; conditions: Homo sapiens, read-out: Growth percent rate
M14 = experiment: NCI60 one-dose screen (10 μM), Melanoma; assay type: cell-based; conditions: Homo sapiens
ACHN = experiment: NCI60 one-dose screen (10 μM), Renal Cancer; assay type: cell-based; conditions: Homo sapiens, read-out: Growth percent rate
KM12 = experiment: NCI60 one-dose screen (10 μM), Colon Cancer; assay type: cell-based, human; conditions: Homo sapiens
NCI-H322M = experiment: NCI60 one-dose screen (10 μM), Non-small Cell Lung Cancer; assay type: cell-based; conditions: Homo sapiens, read-out: Growth percent rate
SW-620 = experiment: NCI60 one-dose screen (10 μM), Colon Cancer; assay type: cell-based; conditions: Homo sapiens
OVCAR-4 = experiment: NCI60 one-dose screen (10 μM), Ovarian Cancer; assay type: cell-based; conditions: Homo sapiens
RXF 393 = experiment: NCI60 one-dose screen (10 μM), Renal Cancer; assay type: cell-based, human; conditions: Homo sapiens
IGROV1 = experiment: NCI60 one-dose screen (10 μM), Ovarian Cancer; assay type: cell-based; conditions: Homo sapiens
[2] = 10 μM, Non-small Cell Lung Cancer

Structure (SMILES): CC[C@]12C=CCN3CC[C@@]4(c5ccc(OC)cc5N(C)[C@H]4[C@@](O)(C(=O)OC)[C@@H]1OC(=O)CCC(=O)N1CCN(C(=O)c4ccco4)CC1)[C@@H]32 [Compound 32]
- activity at 10 µM (HT29; HT-29, read-out: Growth percent rate): 102%
- activity at 10 µM (HCT-15; HCT-15, read-out: Growth percent rate): 100%
- activity at 10 µM (NCI-H522; NCI-H522, read-out: Growth percent rate): 81.4%
- activity at 10 µM (SF-295; SF-295, read-out: Growth percent rate): 95.2%
- activity at 10 µM (NCI-H23; NCI-H23, read-out: Growth percent rate): 101%
- activity at 10 µM (786–0; 786-0, read-out: Growth percent rate): 104%
- activity at 10 µM (SNB-75; SNB-75, read-out: Growth percent rate): 109%
- activity at 10 µM (COLO 205; COLO 205, read-out: Growth percent rate): 45.8%
- activity at 10 µM (CAKI-1; CAKI-1, read-out: Growth percent rate): 78.4%
- activity at 10 µM (MALME-3M; Malme-3M): 82%
- activity at 10 µM (NCI-H460; NCI-H460, read-out: Growth percent rate): 107%
- activity at 10 µM (SNB-19; SNB-19, read-out: Growth percent rate): 91.2%
- activity at 10 µM (HL-60(TB); HL-60, read-out: Growth percent rate): 90.9%
- activity at 10 µM (K-562; K562, read-out: Growth percent rate): 102%
- activity at 10 µM (OVCAR-8; OVCAR-8, read-out: Growth percent rate): 100%
- activity at 10 µM (SK-MEL-28; SK-MEL-28, read-out: Growth percent rate): 67.6%
- activity at 10 µM (SK-MEL-5; SK-MEL-5, read-out: Growth percent rate): 83.8%
- activity at 10 µM (CCRF-CEM): 86.8%
- activity at 10 µM (SF-268; SF-268, read-out: Growth percent rate): 92.2%
- activity at 10 µM ([1]; Homo sapiens): 97.2%
- activity at 10 µM (OVCAR-3; OVCAR-3, read-out: Growth percent rate): 99.8%
- activity at 10 µM (A549/ATCC; A549, read-out: Growth percent rate): 95.2%
- activity at 10 µM (MDA-MB-435; MDA-MB-435, read-out: Growth percent rate): 98.2%
- activity at 10 µM (SF-539; SF-539, read-out: Growth percent rate): 98.8%
- activity at 10 µM (UACC-257; UACC-257, read-out: Growth percent rate): 61.7%
- activity at 10 µM (DU-145; DU-145, read-out: Growth percent rate): 116%
- activity at 10 µM (SK-MEL-2; SK-MEL-2, read-out: Growth percent rate): 96.8%
- activity at 10 µM (HCT-116; HCT-116, read-out: Growth percent rate): 119%
- activity at 10 µM (MOLT-4; MOLT-4, read-out: Growth percent rate): 85.8%
- activity at 10 µM (SN12C): 94.4%
- activity at 10 µM (LOX IMVI): 97.8%
- activity at 10 µM (HCC-2998; HCC 2998, read-out: Growth percent rate): 113%
- activity at 10 µM (MCF7; MCF7, read-out: Growth percent rate): 91.5%
- activity at 10 µM (EKVX): 99.4%
- activity at 10 µM (M14; M14, read-out: Growth percent rate): 88.3%
- activity at 10 µM (ACHN): 103%
- activity at 10 µM (KM12; KM12, read-out: Growth percent rate): 100%
- activity at 10 µM (NCI-H322M): 114%
- activity at 10 µM (SW-620; SW-620, read-out: Growth percent rate): 117%
- activity at 10 µM (OVCAR-4; OVCAR-4, read-out: Growth percent rate): 98.1%
- activity at 10 µM (RXF 393; RXF 393, read-out: Growth percent rate): 102%
- activity at 10 µM (IGROV1; IGROV-1, read-out: Growth percent rate): 126%

Structure (SMILES): CC[C@]12C=CCN3CC[C@@]4(c5ccc(OC)cc5N(C)[C@H]4[C@@](O)(C(=O)OC)[C@@H]1OC(=O)CCC(=O)N1CCN(Cc4ccc(F)cc4)CC1)[C@@H]32 [Compound 30]
- activity at 10 µM (HT29; HT-29, 10 μM, HT29, Colon Cancer, read-out: Growth percent rate): 60.5%
- activity at 10 µM (HCT-15; 10 μM, HCT-15, Colon Cancer, read-out: Growth percent rate): 79.5%
- activity at 10 µM (NCI-H522; 10 μM, NCI-H522, Non-small Cell Lung Cancer, read-out: Growth percent rate): 59.7%
- activity at 10 µM (SF-295; 10 μM, SF-295, CNS Cancer, read-out: Growth percent rate): 67.9%
- activity at 10 µM (NCI-H23; 10 μM, NCI-H23, Non-small Cell Lung Cancer, read-out: Growth percent rate): 83.4%
- activity at 10 µM (786–0; 10 μM, 786-0, Renal Cancer, read-out: Growth percent rate): 84.2%
- activity at 10 µM (SNB-75; 10 μM, SNB-75, CNS Cancer, read-out: Growth percent rate): 64.5%
- activity at 10 µM (COLO 205; 10 μM, COLO 205, Colon Cancer, read-out: Growth percent rate): 66.7%
- activity at 10 µM (CAKI-1; 10 μM, CAKI-1, Renal Cancer, read-out: Growth percent rate): 28.1%
- activity at 10 µM (MALME-3M; 10 μM, MALME-3M, Melanoma): 93.3%
- activity at 10 µM (NCI-H460; 10 μM, NCI-H460, Non-small Cell Lung Cancer, read-out: Growth percent rate): 83.4%
- activity at 10 µM (SNB-19; 10 μM, SNB-19, CNS Cancer, read-out: Growth percent rate): 69.5%
- activity at 10 µM (HL-60(TB); 10 μM, HL-60(TB), Leukemia, read-out: Growth percent rate): 82.2%
- activity at 10 µM (K-562; K562, 10 μM, K-562, Leukemia, read-out: Growth percent rate): 65.2%
- activity at 10 µM (OVCAR-8; 10 μM, OVCAR-8, Ovarian Cancer, read-out: Growth percent rate): 73.7%
- activity at 10 µM (SK-MEL-28; 10 μM, SK-MEL-28, Melanoma, read-out: Growth percent rate): 104%
- activity at 10 µM (SK-MEL-5; 10 μM, SK-MEL-5, Melanoma, read-out: Growth percent rate): 62.6%
- activity at 10 µM (CCRF-CEM; 10 μM, Leukemia): 61.4%
- activity at 10 µM (SF-268; 10 μM, SF-268, CNS Cancer, read-out: Growth percent rate): 50.8%
- activity at 10 µM ([1]; 10 μM, mean over 60 human cancer cell lines): 71.4%
- activity at 10 µM (OVCAR-3; 10 μM, OVCAR-3, Ovarian Cancer, read-out: Growth percent rate): 63.7%
- activity at 10 µM (A549/ATCC; 10 μM, A549/ATCC, Non-small Cell Lung Cancer, read-out: Growth percent rate): 55.4%
- activity at 10 µM (MDA-MB-435; 10 μM, MDA-MB-435, Melanoma, read-out: Growth percent rate): 85.7%
- activity at 10 µM (SF-539; 10 μM, SF-539, CNS Cancer, read-out: Growth percent rate): 78.7%
- activity at 10 µM (UACC-257; 10 μM, UACC-257, Melanoma, read-out: Growth percent rate): 86%
- activity at 10 µM (DU-145; 10 μM, DU-145, Prostate Cancer, read-out: Growth percent rate): 82.6%
- activity at 10 µM (SK-MEL-2; 10 μM, SK-MEL-2, Melanoma, read-out: Growth percent rate): 90.2%
- activity at 10 µM (HCT-116; 10 μM, HCT-116, Colon Cancer, read-out: Growth percent rate): 67.8%
- activity at 10 µM (MOLT-4; 10 μM, MOLT-4, Leukemia, read-out: Growth percent rate): 59.4%
- activity at 10 µM (SN12C; 10 μM, Renal Cancer): 71.2%
- activity at 10 µM (LOX IMVI; 10 μM, Melanoma): 71.8%
- activity at 10 µM (HCC-2998; 10 μM, HCC-2998, Colon Cancer, read-out: Growth percent rate): 85.3%
- activity at 10 µM (MCF7; 10 μM, MCF7, Breast Cancer, read-out: Growth percent rate): 62.2%
- activity at 10 µM (EKVX; [2]): 60.2%
- activity at 10 µM (M14; 10 μM, M14, Melanoma, read-out: Growth percent rate): 61%
- activity at 10 µM (ACHN; 10 μM, Renal Cancer): 71.3%
- activity at 10 µM (KM12; 10 μM, KM12, Colon Cancer, read-out: Growth percent rate): 83.6%
- activity at 10 µM (NCI-H322M; [2]): 97.2%
- activity at 10 µM (SW-620; 10 μM, SW-620, Colon Cancer, read-out: Growth percent rate): 102%
- activity at 10 µM (OVCAR-4; 10 μM, OVCAR-4, Ovarian Cancer, read-out: Growth percent rate): 56.4%
- activity at 10 µM (RXF 393; 10 μM, RXF 393, Renal Cancer, read-out: Growth percent rate): 60.1%
- activity at 10 µM (IGROV1; IGROV-1, 10 μM, IGROV1, Ovarian Cancer, read-out: Growth percent rate): 68.4%
